The values that follow come from patent US20120083522A1, “MODULATION OF INFLAMMATORY RESPONSES BY FACTOR XI” (Isis Pharmaceuitcals, inc., priority 2009, published 2012).

In data set [1] the test system is human Factor XI mRNA. As to the kind of experiment: Dose-dependent inhibition in HepG2 cells, lipofectin (Example 4). In kind it is cell-based. As to conditions: 16 hours. The method in brief:
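HepG2 cells at 10,000 per well were lipofectin-transfected with 9.375, 18.75, 37.5 or 75 nM antisense oligonucleotide for about 16 h. Factor XI mRNA was quantified by real-time PCR (primer probe set RTS 2966) and normalised to RIBOGREEN total RNA. Values are percent inhibition versus untreated cells.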

Data set [2] concerns human Factor XI mRNA. Kind of data set: Dose-dependent inhibition in HepG2 cells, electroporation (Example 4). In kind it is cell-based. As to conditions: 16 hours. The gist of the method: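 HepG2 cells electroporated with 0.7, 2.2, 6.7 or 20 μM antisense gapmer and harvested after ~16 h. Factor XI mRNA quantified by qRT-PCR (primer probe set RTS 2966), normalised to total RNA (RIBOGREEN). Reported as percent inhibition versus untreated control cells.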

In data set [3] the test system is human Factor XI mRNA. As to the kind of experiment: Dose-dependent inhibition in cyno primary hepatocytes, electroporation (Example 6). Type of data set: cell-based, cynomolgus monkey. The note with it: approx. 16 h. As to the method:
Cells were plated at a density of 35,000 cells per well and transfected via electroporation with 0.74 nM, 2.2 nM, 6.7 nM, 20 nM, 60 nM, and 180 nM concentrations of antisense oligonucleotide, as specified in Table 13. After a treatment period of approximately 16 hours, RNA was isolated from the cells and human Factor XI mRNA levels were measured by quantitative real-time PCR. Human Factor XI primer probe set RTS 2966 was used to measure mRNA levels. Factor XI mRNA levels were adjusted according to total RNA content, as measured by RIBOGREEN®. Results are presented as percent inhibition of human Factor XI, relative to untreated control cells.

Data set [4] has as its system human Factor XI mRNA. As to the kind of experiment: Dose-dependent inhibition in HepB3 cells, electroporation (Example 7). Type of data set: cell-based. The note with it: approx. 16 h. As to the method: The gapmers were also transfected via electroporation and their dose dependent inhibition of human Factor XI mRNA was measured. Cells were plated at a density of 20,000 cells per well and transfected via electroporation with 41.15 nM, 123.457 nM, 370.37 nM, 1111.11 nM, 3333.33 nM, and 10,000 nM concentrations of antisense oligonucleotide, as specified in Table 15. After a treatment period of approximately 16 hours, RNA was isolated from the cells and human Factor XI mRNA levels were measured by quantitative real-time PCR. Human Factor XI primer probe set RTS 2966 was used to measure mRNA levels. Factor XI mRNA levels were adjusted according to total RNA content, as measured by RIBOGREEN®. Results are presented as percent inhibition of human Factor XI, relative to untreated control cells.

Data set [5] concerns human Factor XI mRNA. As to the kind of experiment: Antisense inhibition in HepG2 cells by microwalk gapmers, 8,000 nM, electroporation (Example 14). Type of data set: cell-based. The note with it: HepG2 cells, 8,000 nM. The method in brief:
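HepG2 cells electroporated with 8,000 nM 2′-MOE phosphorothioate gapmer (5-10-5, 5-8-5 or 6-8-6). Factor XI mRNA measured after ~24 h by qRT-PCR, normalised to RIBOGREEN total RNA. Reported as percent inhibition versus untreated cells.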

Data set [6] is described as follows: Tolerability in Sprague-Dawley rats: kidney function (Example 19). Type of data set: in vivo. As to conditions: Sprague Dawley rats; for urine protein/creatinine ratio, After: after 50 mg/kg s.c. twice per week for 6 weeks; for urine protein/creatinine ratio, Before: before antisense oligonucleotide treatment. The source says:
Urine samples were taken before the start of treatment.

Take “416825 (antisense GCCCTTCATGTCTAGGTCCA; 5-10-5 gapmer, wing sugar chemistry not given here, further chemistry not given here) [compound 416825]”: the “percent inhibition of Factor XI mRNA, relative to untreated control cells” value in data set [1] (9.375 nM) is 23%; in data set [1] (18.75 nM), 52%; in data set [1] (37.5 nM), 73%; in data set [1] (75 nM), 92%; in data set [2] (0.7 μM) it was 27%; in data set [2] (2.2 μM) it was 74%. In addition, the “percent inhibition of Factor XI mRNA, relative to untreated control cells” value was found to be 92% in data set [2] (6.7 μM) and 98% in data set [2] (20 μM). Further, the “percent inhibition of human Factor XI mRNA” value in data set [3] (0.74 nM) stood at 5%; in data set [3] (2.2 nM) it was 22%; in data set [3] (6.7 nM), 51%; in data set [3] (20 nM) it was 61%; in data set [3] (60 nM) it was 77%; in data set [3] (180 nM) it was 84%. The “percent inhibition of human Factor XI mRNA” value in data set [4] (41.15 nM) was 32%; in data set [4] (123.457 nM), 40%; in data set [4] (370.37 nM) it was 48%; in data set [4] (1111.11 nM) it was 75%; in data set [4] (3333.33 nM), 90%; in data set [4] (10000 nM), 92%. Further, in data set [5], the “Percent inhibition of human Factor XI mRNA levels” value is given as 90%. In addition, the “urine protein/creatinine ratio, After” value in data set [6] is 5.4. The “urine protein/creatinine ratio, Before” value in data set [6] worked out at 1.1.

“416850 (antisense TGCACAGTTTCTGGCAGGCC; 5-10-5 gapmer, wing sugar chemistry not given here, further chemistry not given here) [compound 416850]”: the “percent inhibition of Factor XI mRNA, relative to untreated control cells” value in data set [1] (9.375 nM) is on record as 4%; in data set [1] (18.75 nM) it was 30%; in data set [1] (37.5 nM) it was 67%; in data set [1] (75 nM), 84%; in data set [2] (0.7 μM) it was 14%; in data set [2] (2.2 μM) it was 25%. The “percent inhibition of Factor XI mRNA, relative to untreated control cells” value is listed as 81% in data set [2] (6.7 μM) and 91% in data set [2] (20 μM). Also, the “percent inhibition of human Factor XI mRNA” value in data set [3] (0.74 nM) is given as 2%; in data set [3] (2.2 nM) it was 20%; in data set [3] (6.7 nM), 24%; in data set [3] (20 nM), 65%; in data set [3] (60 nM), 69%; in data set [3] (180 nM), 67%. Moreover, the “percent inhibition of human Factor XI mRNA” value stood at 26% in data set [4] (41.15 nM); 38% in data set [4] (123.457 nM); 51% in data set [4] (370.37 nM); 73% in data set [4] (1111.11 nM); 90% in data set [4] (3333.33 nM); 95% in data set [4] (10000 nM). In addition, in data set [5], the “Percent inhibition of human Factor XI mRNA levels” value was 91%. In addition, in data set [6], the “urine protein/creatinine ratio, After” value came to 4.0. Also, the “urine protein/creatinine ratio, Before” value in data set [6] is on record as 1.0.

For “416858 (antisense ACGGCATTGGTGCACAGTTT; 5-10-5 gapmer, wing sugar chemistry not given here, further chemistry not given here) [compound 416858]”, the “percent inhibition of Factor XI mRNA, relative to untreated control cells” value in data set [1] (9.375 nM) was 0%; in data set [1] (18.75 nM), 28%; in data set [1] (37.5 nM), 54%; in data set [1] (75 nM), 82%; in data set [2] (0.7 μM), 5%; in data set [2] (2.2 μM), 20%. Also, the figures for the “percent inhibition of Factor XI mRNA, relative to untreated control cells” value in data set [2] (6.7 μM) and in data set [2] (20 μM) were 56% and 86%, respectively. The “percent inhibition of human Factor XI mRNA” value in data set [3] (0.74 nM) was found to be 2%; in data set [3] (2.2 nM), 13%; in data set [3] (6.7 nM) it was 22%; in data set [3] (20 nM), 44%; in data set [3] (60 nM) it was 63%; in data set [3] (180 nM), 68%. Further, the “percent inhibition of human Factor XI mRNA” value in data set [4] (41.15 nM) was determined as 23%; in data set [4] (123.457 nM), 45%; in data set [4] (370.37 nM) it was 52%; in data set [4] (1111.11 nM) it was 64%; in data set [4] (3333.33 nM), 87%; in data set [4] (10000 nM), 92%. Further, the “Percent inhibition of human Factor XI mRNA levels” value in data set [5] came out at 90%. The “urine protein/creatinine ratio, After” value in data set [6] is 4.4. Also, the “urine protein/creatinine ratio, Before” value in data set [6] is listed as 0.9.

Take “417003 (antisense TGGTGCACAGTTTCTGGCAG; 2-13-5 gapmer, wing sugar chemistry not given here, further chemistry not given here) [compound 417003]”: the “percent inhibition of Factor XI mRNA, relative to untreated control cells” value is listed as 26% in data set [1] (9.375 nM); 44% in data set [1] (18.75 nM); 60% in data set [1] (37.5 nM); 56% in data set [1] (75 nM); 0% in data set [2] (0.7 μM); 34% in data set [2] (2.2 μM). The “percent inhibition of Factor XI mRNA, relative to untreated control cells” value in data set [2] (6.7 μM) is 75%; in data set [2] (20 μM), 89%. Besides, the “percent inhibition of human Factor XI mRNA” value in data set [3] (0.74 nM) is listed as 12%; in data set [3] (2.2 nM) it was 18%; in data set [3] (6.7 nM) it was 19%; in data set [3] (20 nM), 39%; in data set [3] (60 nM) it was 58%; in data set [3] (180 nM), 74%. Also, the “percent inhibition of human Factor XI mRNA” value in data set [4] (41.15 nM) was 31%; in data set [4] (123.457 nM), 0%; in data set [4] (370.37 nM), 15%; in data set [4] (1111.11 nM) it was 43%; in data set [4] (3333.33 nM), 84%; in data set [4] (10000 nM) it was 92%. Also, the “urine protein/creatinine ratio, After” value in data set [6] is reported as 4.8. Moreover, in data set [6], the “urine protein/creatinine ratio, Before” value was found to be 0.9.
